Results from publication PMC5209718, “Piscidin-1-analogs with double L- and D-lysine residues exhibited different conformations in lipopolysaccharide but comparable anti-endotoxin activities” (Scientific Reports, 2017).
≈ marks a conversion by molar mass, not a printed value. Like-named read-outs stand apart in the source and are kept apart here. Residues, ends and D or L forms follow the SMILES beside them.

Assays:
[1] = no LPS, BALB/c mice, data not shown
[2] = tested on: human red blood cells (hRBCs); format: cell-based
Description: Cytotoxic activity of piscidin-1 and its designed analogs was examined by assaying the lysis of human red blood cells (hRBCs) and the viability of murine 3T3 cells in presence of these peptides. […] Introduction of D-lysine (dK)residues instead of threonine residues at 15th & 21st positions further reduced the haemolytic activity of piscidin-1 (Fig. 1A). Overall, haemolytic activity of these peptides against hRBCs followed the order piscidin-1 > T15K-piscidin-1 > T15dK-piscidin-1 > T15,21K-piscidin-1 > T15,21dK-piscidin-1. Viability of 3T3 cells as determined by MTT assay in the presence of these peptides followed the same trend as their haemolytic activity (Fig. 1B).
Haemolytic activity of the peptides against human red blood cells in PBS was performed by assaying the ability of the peptides to lyse the hRBCs[24][48]. For this purpose, fresh human red blood cells (hRBCs) were collected in the presence of an anti-coagulant from a healthy volunteer. After washing the blood three times with PBS haemolytic activity of the peptides were determined as reported previously. Methodology of our experiment with human blood was in accordance with relevant guidelines and regulations of CSIR-central drug research institute ethics committee and was approved by it with approval No. CDRI/IEC/2014/A5. Further, informed consent was obtained from the healthy volunteer before collection of blood as per the guideline of our Institutional ethics committee.

E. coli (ATCC 25922) = test: Antibacterial activity (MIC), liquid culture in 96-well microtiter plates; format: cell-based; settings: means of three independent experiments each in duplicate ± SD, read-out: Minimum inhibitory conc. (MIC) against bacteria 11
Description: (§1) Piscidin-1 and its analogs were examined for bacterial growth-inhibiting activity in liquid cultures against Gram-positive bacteria including MRSA strains and Gram-negative bacteria (Table 2). […] The therapeutic index is a parameter that signify the specificity or selectivity of antimicrobial agents towards microorganisms over mammalian cells.
(§2) Antibacterial assays with all the peptides were done in 96-well microtiter plates against different Gram-positive, Gram-negative and resistant bacteria as described earlier.

[3] = tested on: E. coli 0111:B4 LPS-administered mice; test: In vivo anti-LPS activity: survival of LPS-administered mice (septic shock); settings: BALB/c mice, monitored 7 days; for survival of LPS-administered mice: n = 5
Description: Septic shock in BALB/c mice was induced by intraperitoneal (i.p.) injection of E. coli LPS (12 mg/kg) followed by i.p. injection of T15,21K-piscidin-1 (0.5 mg/Kg) or T15,21dK-piscidin-1 (1 mg/Kg) or polymyxin B (1 mg/Kg) ~5 min later. Mice treated with only saline was taken as control. Survival of the animals (n = 5) was monitored for 7 days (***p < 0.0001, log-rank test).
Polymyxin B was taken as the positive control and the experiments were performed as reported earlier[14][30][31].
In vivo studies, treat ment of Mice
Female BALB/c mice (National laboratory animal centre, central drug research institute,
Lucknow) we re given a s tandard laborato r y diet an d water ad libitum and housed under controlled
environmental conditions. The mice wer e approx imatel y 25 g each at the st art of experiments. All
the mice were divided into experimental groups for the administration of LPS and peptides. Mice
were treated with 12 m g/ kg E. coli 0111: B4 LPS i n presen ce and in absen ce of peptide in different
experimental groups. The mice treated with saline onl y, in absence of LP S were considered as
experimental controls. To study the efficacy of a peptide in neutralizing LPS-induced pro-
inflammatory responses in mice ~5 min post LPS treatment, the respective peptide was
administered i.p. at a site other than the one, used for LPS injection. […] Survival of mice was
monitored for 7 da ys. Survival of mice was also mo nitored following th e treatment of onl y p eptides
for investigating their toxic effects.

[4] = tested on: Staphylococcus aureus (ATCC BAA-44 MRSA); test: microbe, parasite or virus in culture; settings: ATCC BAA-44
Description: as §1, §2

[5] = tested on: Staphylococcus aureus (ATCC 1708 MRSA); test: microbe, parasite or virus in culture; settings: ATCC 1708
Description: as §1, §2

[6] = tested on: Staphylococcus aureus (ATCC 700698 MRSA); test: microbe, parasite or virus in culture; settings: ATCC 700698
Description: as §1, §2

[7] = tested on: Staphylococcus aureus (ATCC 700699 MRSA); test: microbe, parasite or virus in culture; settings: ATCC 700699
Description: as §1, §2

[8] = tested on: Staphylococcus aureus (ATCC 33592 Gentamycin Resistant); test: microbe, parasite or virus in culture; settings: ATCC 33592
Description: as §1, §2

[9] = tested on: Staphylococcus aureus (ATCC 25923); test: microbe, parasite or virus in culture; format: cell-based; settings: ATCC 25923
Description: as §1, §2

[10] = tested on: P. aeruginosa (ATCC BAA-427); test: microbe, parasite or virus in culture; format: cell-based; settings: ATCC BAA-427
Description: as §1, §2

[11] = tested on: Staphylococcus aureus (ATCC 29213); test: microbe, parasite or virus in culture; format: cell-based; settings: ATCC 29213
Description: as §1, §2

[12] = tested on: K. pneumoniae (ATCC 27736); test: microbe, parasite or virus in culture; format: cell-based; settings: ATCC 27736
Description: as §1, §2

B. subtilis (ATCC 6633) = test: microbe, parasite or virus in culture; format: cell-based; settings: ATCC 6633
Description: as §1, §2

| Compound | survival of control mice treated only with peptide ([1]; 1.0 mg/kg) [%] | HC50, peptide concentration leading to 50% lysis of human RBC [2] [µM] | MIC (E. coli (ATCC 25922)) [µM] | survival of LPS-administered mice ([3]; peptide 1.0 mg/Kg i.p. ~5 min after LPS 12.0 mg/Kg i.p.) [%] | mortality rate of LPS-administered mice ([3]; single dose 1.0 mg/kg i.p. after LPS 12 mg/kg) | Minimum inhibitory conc. (MIC) against bacteria 5 [4] [µM] | Minimum inhibitory conc. (MIC) against bacteria 7 [5] [µM] | Minimum inhibitory conc. (MIC) against bacteria 6 [6] [µM] | Minimum inhibitory conc. (MIC) against bacteria 3 [7] [µM] | Minimum inhibitory conc. (MIC) against bacteria 4 [8] [µM] | Minimum inhibitory conc. (MIC) against bacteria 1 [9] [µM] | Minimum inhibitory conc. (MIC) against bacteria 8 [10] [µM] | Minimum inhibitory conc. (MIC) against bacteria 2 [11] [µM] | Minimum inhibitory conc. (MIC) against bacteria 10 [12] [µM] | Minimum inhibitory conc. (MIC) against bacteria 9 (B. subtilis (ATCC 6633)) [µM] | survival of control mice treated only with peptide ([1]; 0.5 mg/kg) [%] | survival of LPS-administered mice ([3]; peptide 0.5 mg/Kg i.p. ~5 min after LPS 12.0 mg/Kg i.p.) [%] | mortality rate of LPS-administered mice ([3]; single dose 0.5 mg/kg i.p. after LPS 12 mg/kg) |
| --- | --- | --- | --- | --- | --- | --- | --- | --- | --- | --- | --- | --- | --- | --- | --- | --- | --- | --- |
| CC[C@H](C)[C@H](NC(=O)CNC(=O)[C@H](CCCNC(=N)N)NC(=O)[C@H](Cc1ccccc1)NC(=O)[C@@H](NC(=O)[C@H](Cc1c[nH]cn1)NC(=O)[C@H](Cc1c[nH]cn1)NC(=O)[C@H](Cc1ccccc1)NC(=O)[C@@H](N)Cc1ccccc1)[C@@H](C)CC)C(=O)N[C@H](C(=O)N[C@@H](Cc1c[nH]cn1)C(=O)N[C@H](C(=O)NCC(=O)N[C@@H](CCCCN)C(=O)N[C@H](CCCCN)C(=O)N[C@H](C(=O)N[C@@H](Cc1c[nH]cn1)C(=O)N[C@@H](CCCNC(=N)N)C(=O)N[C@@H](CC(C)C)C(=O)N[C@H](C(=O)N[C@H](CCCCN)C(=O)NCC(N)=O)C(C)C)[C@@H](C)CC)C(C)C)C(C)C [T15,21dK Piscidin-1] (HELM PEPTIDE1{F.F.H.H.I.F.R.G.I.V.H.V.G.K.[dK].I.H.R.L.V.[dK].G.[am]}$$$$V2.0) | 100 | 500 | 5.0 (≈ 13.1 µg/mL) | 100 | zero | 5.0 ± 0.7 (≈ 13.1 µg/mL) | 5.0 ± 0.7 (≈ 13.1 µg/mL) | 10.0 ± 1.4 (≈ 26.3 µg/mL) | 10.0 ± 1.4 (≈ 26.3 µg/mL) | 5.0 ± 0.7 (≈ 13.1 µg/mL) | 5.0 ± 0.7 (≈ 13.1 µg/mL) | 9.0 ± 1.3 (≈ 23.6 µg/mL) | 5.0 ± 0.7 (≈ 13.1 µg/mL) | 5.0 ± 0.7 (≈ 13.1 µg/mL) | 9.0 ± 1.3 (≈ 23.6 µg/mL) |  |  |  |
| H-FFHHIFRGIVHVGKKIHRLVKG-NH2 [T15,21K Piscidin-1] |  | 200 | 2.0 |  |  | 1.25 ± 0.3 | 1.25 ± 0.3 | 2.5 ± 0.4 | 2.5 ± 0.4 | 2.5 ± 0.4 | 1.25 ± 0.3 | 5.0 ± 0.7 | 2.5 ± 0.4 | 3.0 ± 0.4 | 5.0 ± 0.7 | 100 | 100 | zero |
